Results published in US12466804B2 (BRISTOL-MYERS SQUIBB COMPANY, priority 2019, dated 2025).

The compounds below were run against T1, human LPA1 (Homo sapiens, UniProt Q92633) (assay: LPA1 functional antagonist assay (LPA-induced calcium flux)). Details: CHO cells overexpressing human LPA1; calcium flux induced by 10 nM LPA; read-out: hLPA1 IC50.
T1 construct: expressed in transfected cells; host or cells: Chinese hamster ovary (CHO) cells
Assay type: cell-based
Description: The effectiveness of compounds of the present invention as LPA1 inhibitors can be determined in an LPA1 functional antagonist assay as follows:
The cells were then equilibrated to room temperature for 30 minutes before the assay. […] IC50 values were determined by fitting data to a 4-parameter logistic equation (GraphPad Prism, San Diego CA).

T1 sequence (Q92633 whole entry): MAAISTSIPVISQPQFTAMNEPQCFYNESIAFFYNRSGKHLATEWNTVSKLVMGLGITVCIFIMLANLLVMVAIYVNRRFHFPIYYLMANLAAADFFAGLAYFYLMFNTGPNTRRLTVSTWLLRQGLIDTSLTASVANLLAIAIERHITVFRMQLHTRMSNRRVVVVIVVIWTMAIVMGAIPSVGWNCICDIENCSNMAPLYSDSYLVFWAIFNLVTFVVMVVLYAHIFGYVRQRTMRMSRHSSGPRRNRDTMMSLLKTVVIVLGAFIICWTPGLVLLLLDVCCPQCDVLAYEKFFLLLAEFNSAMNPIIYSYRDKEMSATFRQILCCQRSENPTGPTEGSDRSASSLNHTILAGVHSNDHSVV

Row | IC50 [nM] | SMILES
1 | 187 | Cc1noc(-c2ccc(OC[C@@H]3CC[C@H]3C(=O)O)cc2)c1COC(=O)N(C)C1CCCC1 (racemic) [Example 1, (±)-(1R,2R)-2-((4-(4-(((cyclopentyl(methyl)carbamoyl)oxy)methyl)-3-methylisoxazol-5-yl)phenoxy)methyl)cyclobutane-1-carboxylic acid]
2 | 15.4 | Cc1noc(-c2ccc(OC[C@@H]3CC[C@H]3C(=O)O)cn2)c1CNc1nccc(-c2ccccn2)n1 (racemic) [Example 2, (±)-(1R,2R)-2-(((6-(3-methyl-4-(((4-(pyridin-2-yl)pyrimidin-2-yl)amino)methyl)isoxazol-5-yl)pyridin-3-yl)oxy)methyl)cyclobutane-1-carboxylic acid]
3 | 18 | Cc1nc(-c2onc(C)c2CNc2nccc(-c3ccccn3)n2)ccc1OC[C@@H]1CC[C@H]1C(=O)O (racemic) [Example 5, (±)-(1R,2R)-2-(((2-methyl-6-(3-methyl-4-(((4-(pyridin-2-yl)pyrimidin-2-yl)amino)methyl)isoxazol-5-yl)pyridin-3-yl)oxy)methyl)cyclobutane-1-carboxylic acid]
4 | 27 | Cc1nc(-c2nnn(C)c2COC(=O)N(C)CC2CCC2)ccc1OC[C@@H]1CC[C@H]1C(=O)O (racemic) [Example 6, (±)-(1R,2R)-2-(((6-(5-((((cyclobutylmethyl)(methyl)carbamoyl)oxy)methyl)-1-methyl-1H-1,2,3-triazol-4-yl)-2-methylpyridin-3-yl)oxy)methyl)cyclobutane-1-carboxylic acid]
5 | 42 | CCc1cc(OCc2c(-c3ccc(OC[C@@H]4CC[C@H]4C(=O)O)c(C)n3)nnn2C)ncn1 (racemic) [Example 11, (±)-(1R,2R)-2-(((6-(5-(((6-ethylpyrimidin-4-yl)oxy)methyl)-1-methyl-1H-1,2,3-triazol-4-yl)-2-methylpyridin-3-yl)oxy)methyl)cyclobutane-1-carboxylic acid]
6 | 382 | CCc1ccnc(OCc2c(-c3ccc(OC[C@@H]4CC[C@H]4C(=O)O)c(C)n3)nnn2C)n1 (racemic) [Example 14, (±)-(1R,2R)-2-(((6-(5-(((4-ethylpyrimidin-2-yl)oxy)methyl)-1-methyl-1H-1,2,3-triazol-4-yl)-2-methylpyridin-3-yl)oxy)methyl)cyclobutane-1-carboxylic acid]
7 | 128 | Cc1nc(-c2nnn(C)c2COc2noc(C3CC3)n2)ccc1OC[C@@H]1CC[C@H]1C(=O)O (racemic) [Example 15, (±)-(1R,2R)-2-(((6-(5-(((5-cyclopropyl-1,2,4-oxadiazol-3-yl)oxy)methyl)-1-methyl-1H-1,2,3-triazol-4-yl)-2-methylpyridin-3-yl)oxy)methyl)cyclobutane-1-carboxylic acid]
8 | 25 | Cc1nc(-c2nnn(C)c2COc2noc(C(C)C)n2)ccc1OC[C@@H]1CC[C@H]1C(=O)O (racemic) [Example 16, (±)-(1R,2R)-2-(((6-(5-(((5-isopropyl-1,2,4-oxadiazol-3-yl)oxy)methyl)-1-methyl-1H-1,2,3-triazol-4-yl)-2-methylpyridin-3-yl)oxy)methyl)cyclobutane-1-carboxylic acid]
9 | 66 | Cc1nc(-c2nnn(C)c2COc2cc(OC3CC3)ncn2)ccc1OC[C@@H]1CC[C@H]1C(=O)O (racemic) [Example 17, (±)-(1R,2R)-2-(((6-(5-(((6-cyclopropoxy-pyrimidin-4-yl)oxy)methyl)-1-methyl-1H-1,2,3-triazol-4-yl)-2-methylpyridin-3-yl)oxy)methyl)cyclobutane-1-carboxylic acid]
10 | 83 | Cc1nc(-c2nnn(C)c2COc2cc(C3CC3)ncn2)ccc1OC[C@@H]1CC[C@H]1C(=O)O (racemic) [Example 18, (±)-(1R,2R)-2-(((6-(5-(((6-cyclopropyl-pyrimidin-4-yl)oxy)methyl)-1-methyl-1H-1,2,3-triazol-4-yl)-2-methylpyridin-3-yl)oxy)methyl)cyclobutane-1-carboxylic acid]
11 | 121 | COc1cc(OCc2c(-c3ccc(OC[C@@H]4CC[C@H]4C(=O)O)c(C)n3)nnn2C)ncn1 (racemic) [Example 19, (±)-(1R,2R)-2-(((6-(5-(((6-methoxy-pyrimidin-4-yl)oxy)methyl)-1-methyl-1H-1,2,3-triazol-4-yl)-2-methylpyridin-3-yl)oxy)methyl)cyclobutane-1-carboxylic acid]
12 | 24 | CCOc1ccnc(NCc2c(-c3ccc(OC[C@@H]4CC[C@H]4C(=O)O)c(C)n3)nnn2C)n1 (racemic) [Example 21, (±)-(1R,2R)-2-(((6-(5-(((4-ethoxy-pyrimidin-2-yl)amino)methyl)-1-methyl-1H-1,2,3-triazol-4-yl)-2-methylpyridin-3-yl)oxy)methyl)cyclobutane-1-carboxylic acid]
13 | 149 | Cc1nc(-c2nnn(C)c2CNc2nccc(Oc3ccccc3)n2)ccc1OC[C@@H]1CC[C@H]1C(=O)O (racemic) [Example 22, (±)-(1R,2R)-2-(((2-methyl-6-(1-methyl-5-(((4-phenoxypyrimidin-2-yl)amino)methyl)-1H-1,2,3-triazol-4-yl)pyridin-3-yl)oxy)methyl)cyclobutane-1-carboxylic acid]
14 | 117 | Cc1nc(-c2nnn(C)c2CNc2nccc(C(C)C)n2)ccc1OC[C@@H]1CC[C@H]1C(=O)O (racemic) [Example 23, (±)-(1R,2R)-2-(((6-(5-(((4-isopropyl-pyrimidin-2-yl)amino)methyl)-1-methyl-1H-1,2,3-triazol-4-yl)-2-methylpyridin-3-yl)oxy)methyl)cyclobutane-1-carboxylic acid]
15 | 56 | Cc1nc(-c2nnn(C)c2CNc2nccc(-c3ccccn3)n2)ccc1OC[C@@H]1CC[C@H]1C(=O)O (racemic) [Example 26, (±)-(1R,2R)-2-(((2-methyl-6-(1-methyl-5-(((4-(pyridin-2-yl)pyrimidin-2-yl)amino)methyl)-1H-1,2,3-triazol-4-yl)pyridin-3-yl)oxy)methyl)cyclobutane-1-carboxylic acid]
16 | 49 | Cn1nnc(-c2ccc(OC[C@@H]3CC[C@H]3C(=O)O)cn2)c1CNc1nccc(-c2ccccn2)n1 (racemic) [Example 27, (±)-(1R,2R)-2-(((6-(1-methyl-5-(((4-(pyridin-2-yl)pyrimidin-2-yl)amino)methyl)-1H-1,2,3-triazol-4-yl)pyridin-3-yl)oxy)methyl)cyclobutane-1-carboxylic acid]
17 | 184 | Cc1nc(-c2nnn(C)c2COC(=O)N(C)CC2CC2)ccc1OC[C@@H]1CC[C@H]1C(=O)O (racemic) [Example 31, (±)-(1R,2R)-2-(((6-(5-((((Cyclopropylmethyl)(methyl)carbamoyl)oxy)methyl)-1-methyl-1H-1,2,3-triazol-4-yl)-2-methylpyridin-3-yl)oxy)methyl) cyclobutanecarboxylic acid]
18 | 70 | Cc1nc(-c2nnn(C)c2CNC(=O)OCc2ccccc2)ccc1OC[C@@H]1CC[C@H]1C(=O)O (racemic) [Example 32, (±)-(1R,2R)-2-(((6-(5-((((Benzyloxy)carbonyl)amino)methyl)-1-methyl-1H-1,2,3-triazol-4-yl)-2-methylpyridin-3-yl)oxy)methyl)cyclobutanecarboxylic acid]
19 | 326 | Cc1nc(-c2nnn(C)c2CNC(=O)OCCC2CC2)ccc1OC[C@@H]1CC[C@H]1C(=O)O (racemic) [Example 33, (±)-(1R,2R)-2-(((6-(5-((((2-Cyclopropylethoxy)carbonyl)amino)methyl)-1-methyl-1H-1,2,3-triazol-4-yl)-2-methylpyridin-3-yl)oxy)methyl)cyclobutanecarboxylic acid]
